Experimental data taken from patent US20260138976A1 (Hoffmann-La Roche Inc., priority 2022, published 2026).

Columns and labels:
primary human T-cells = assay: IL2 secretion measurements (24 h, CD3-stimulated T-cells, PBS counter screen); type: cell-based; conditions: for Emax IL2 (% activation): CD3 condition, normalised to DMSO (neutral) and 20 μM reference compound A1 = 100%; for EC50: Homo sapiens, T-cell, CD3-stimulated primary human T-cells, IL2 secretion, fitted sigmoidal curve, read-out: Tcell IL2 CD3 EC50
Procedure: As readouts for T-cell activation, 1L2 secretion after 24 hours and proliferation after 5 days was measured. Increases in IL2 secretion and proliferation upon compound treatment were assessed as the % of the maximum of reference compound A1. WO 2016/139181 discloses reference compound A1 as example 70. As a counter screen and to make sure that no unwanted TCR-independent activation was triggered, PBS conditions were run for all compounds.
Expanded primary human T-cells were thawed and cultured in RPMI 1640 (Gibco, #61870-010)+5% human serum (HS, Sigma, #H3667)+1 mM Sodium Pyruvate (Gibco, #11360-039)+50 μM 2-mercaptoethanol (Gibco, #31350-010) and 1× Pen-Strep (Life Technologies, #15140122) medium at density of 2 Mio/ml for 3 hours in 5% CO2, 37° C. and 95% humidity. For coating of plates, […] or PBS++ with CD3 antibody (concentration depending on donor and determined by CD3 titrations) was added 100 μl/well to Poly-D Lysine coated 96-well plates. Plates were sealed and incubated at room temperature for 3 hours on a table-top rocking platform. After incubation, plates were washed once with PBS−− and filled with 40 μl/well culture medium only. Compounds were then added (see next section) to medium only plates. After 3 hours of culturing the T-cells, cells were filtered through a cell strainer (Miltenyi Biotech, #130-041-407), counted again and concentration was adjusted to 1.25 Mio/ml.
Cells were then seeded 80 μl/well to the 40 μl/well including dispensed compounds according to plate layout. By adding cells, compounds were further diluted 1:3, and resulting in 100 k cells/120 μl/well. After 24 hours 40 μl of supernatant was collected carefully from the top while not disturbing the cells and transferred into a round bottom 96 well plate. Collected and frozen supernatant was used for detection of IL2 using the IL-2 Human ProQuantum Immunoassay Kit (Invitrogen) or using the Human IL-2 ELISA Kit (Thermo Fisher).
Compounds were added in a 5 or 6 pt dose response with the Tecan D300e Digital Dispenser, all conditions 3 times more concentrated than the end-concentration, since cells are added afterwards (80 μl cells to 40 μl prepared medium with treatment). The DR was starting at 20 μM or 10 μM final top concentration and a dilution factor of 3.333. The positive control was the reference compound A1 that was added in a dose response as well, additionally to 3 wells of only 20 μM representing the positive stimulator control. All wells were normalized with DMSO to a final concentration of 0.6% (0.2% end-concentration).
The immunoassay is done following the manufacturer's manual (Invitrogen, #A35603). Additional information: For the immunoassay, MicroAmp™ EnduraPlate™ Optical 384-Well plates are used. Frozen supernatant is thawed and centrifuged for 5 minutes at 1000×g, both steps at 4° C. After centrifugation, required sample amount is taken from the top, and in a separate LightCycler V-bottom plate (working plate) diluted with assay dilution buffer, dilution factor depending on the PBS or CD3 condition but at least 1:3. IL-2 standard and blanks are prepared in the same V-bottom plate, standard with a range of 0.0128-5000 pg/ml (extended version). After preparation, 5 μl of sample dilutions or standard/blanks are transferred to the optical 384-well plate (assay plate) and the 10 μl reaction protocol is being followed. For measurement, the QuantStudio 12K Flex system is used. Raw data is extracted and IL-2 concentrations are calculated with the Thermo Fisher online app (apps.thermofisher.com/apps/proquantum).
ELISA is done following the manufacturer's manual (Thermo Fisher Scientific, #88-7025-88). Additional information: For the ELISA Nunc MaxiSorp 96 well plates are used. Frozen supernatant is thawed and centrifuged for 5 minutes at 1000×g, both steps at 4° C. […]

[1] = molecular target: T1, DGKζ (hDGKzeta(1-928)-N-His) (Homo sapiens, UniProt Q13574); assay: In vitro DGK inhibition assay, DGKzeta ADP Glo (in house); type: biochemical; conditions: 2 nM DGKζ, 50 μM ATP, 125 uM DLG in liposomes, 1 hour reaction
T1 construct: hDGKzeta(1-928)-N-His; His (N); made in house; host or cells: Sf21 insect cells (baculovirus)
Procedure, shortened: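 ADP-Glo luminescence measured ADP formed over 1 h by Sf21-expressed full-length human enzymes: DGKα at 4 nM with 25 µM ATP, DGKζ at 2 nM with 50 µM ATP, both on 125 µM DLG in PS/PC liposomes. Dose–response used 11 threefold dilutions at 2% final DMSO.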

T1 sequence (Q13574 whole entry): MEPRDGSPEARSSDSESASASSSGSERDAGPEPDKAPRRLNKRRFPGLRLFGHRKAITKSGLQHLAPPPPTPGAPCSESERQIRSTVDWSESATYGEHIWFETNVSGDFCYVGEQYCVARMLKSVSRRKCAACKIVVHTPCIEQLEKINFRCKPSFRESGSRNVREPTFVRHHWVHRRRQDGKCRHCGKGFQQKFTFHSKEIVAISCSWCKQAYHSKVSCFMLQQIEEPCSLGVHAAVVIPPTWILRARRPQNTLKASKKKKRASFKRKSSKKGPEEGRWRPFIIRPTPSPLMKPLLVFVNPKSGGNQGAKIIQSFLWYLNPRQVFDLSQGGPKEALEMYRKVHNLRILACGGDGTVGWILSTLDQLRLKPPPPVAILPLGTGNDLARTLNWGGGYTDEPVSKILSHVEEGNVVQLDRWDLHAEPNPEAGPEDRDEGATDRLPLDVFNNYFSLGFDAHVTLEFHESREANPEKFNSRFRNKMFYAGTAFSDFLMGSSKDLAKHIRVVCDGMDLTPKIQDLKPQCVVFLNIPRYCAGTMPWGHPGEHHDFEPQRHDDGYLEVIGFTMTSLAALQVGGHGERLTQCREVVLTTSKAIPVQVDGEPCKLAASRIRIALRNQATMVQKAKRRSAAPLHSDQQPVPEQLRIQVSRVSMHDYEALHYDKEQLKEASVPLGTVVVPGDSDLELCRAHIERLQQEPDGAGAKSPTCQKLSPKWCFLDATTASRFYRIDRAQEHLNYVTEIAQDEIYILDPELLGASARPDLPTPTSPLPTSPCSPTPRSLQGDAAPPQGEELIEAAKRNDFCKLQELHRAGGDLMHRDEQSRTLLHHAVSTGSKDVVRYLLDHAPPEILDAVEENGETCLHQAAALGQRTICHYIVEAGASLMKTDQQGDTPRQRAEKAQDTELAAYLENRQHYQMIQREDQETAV

SMILES	IC50 [1]	Emax IL2 (% activation) (primary human T-cells)	EC50 (primary human T-cells)
CC1(Nc2nnc(-c3cc4c(cc3F)S(=O)(=O)C[C@H](N)C(=O)N4Cc3ccc(-c4noc(C(F)(F)F)n4)cc3)o2)CC(F)(F)C1 [Example 3, (3R)-3-amino-7-[5-[(3,3-difluoro-1-methyl-cyclobutyl)amino]-1,3,4-oxadiazol-2-yl]-8-fluoro-1,1-dioxo-5-[[4-[5-(trifluoromethyl)-1,2,4-oxadiazol-3-yl]phenyl]methyl]-2,3-dihydro-1λ^6,5-benzothiazepin-4-one]	1280 nM	594 % activation	213 nM
N[C@H]1CS(=O)(=O)c2cc(F)c(-c3nnc(N4CCC(F)(F)CC4)o3)cc2N(Cc2ccc(-c3noc(C(F)(F)F)n3)cc2)C1=O [Example 5, (3R)-3-amino-7-[5-(4,4-difluoro-1-piperidyl)-1,3,4-oxadiazol-2-yl]-8-fluoro-1,1-dioxo-5-[[4-[5-(trifluoromethyl)-1,2,4-oxadiazol-3-yl]phenyl]methyl]-2,3-dihydro-1λ^6,5-benzothiazepin-4-one]	68 nM	537 % activation	323 nM
COc1ccc(-c2ccc(CN3C(=O)[C@@H](N)CS(=O)(=O)c4cc(F)c(-c5noc(C6(N)COC6)n5)cc43)cc2)cc1 [Example 8, (3R)-3-amino-7-[5-(3-aminooxetan-3-yl)-1,2,4-oxadiazol-3-yl]-8-fluoro-5-[[4-(4-methoxyphenyl)phenyl]methyl]-1,1-dioxo-2,3-dihydro-1λ^6,5-benzothiazepin-4-one]	137 nM	96 % activation	5600 nM
N[C@H]1CS(=O)(=O)c2cc(F)c(-c3noc(C4(N)COC4)n3)cc2N(Cc2ccc(-c3noc(C(F)(F)F)n3)cc2)C1=O [Example 9, (3R)-3-amino-7-[5-(3-aminooxetan-3-yl)-1,2,4-oxadiazol-3-yl]-8-fluoro-1,1-dioxo-5-[[4-[5-(trifluoromethyl)-1,2,4-oxadiazol-3-yl]phenyl]methyl]-2,3-dihydro-1λ^6,5-benzothiazepin-4-one]	468 nM	558 % activation	1100 nM
N#CC1(c2nc(-c3cc4c(cc3F)S(=O)(=O)C[C@H](N)C(=O)N4Cc3ccc(-c4noc(C(F)(F)F)n4)cc3)no2)CC1 [Example 16, 1-[3-[(3R)-3-amino-8-fluoro-1,1,4-trioxo-5-[[4-[5-(trifluoromethyl)-1,2,4-oxadiazol-3-yl]phenyl]methyl]-2,3-dihydro-1λ^6,5-benzothiazepin-7-yl]-1,2,4-oxadiazol-5-yl]cyclopropanecarbonitrile]	281 nM	315 % activation	368 nM
N[C@H]1CS(=O)(=O)c2cc(F)c(-c3noc(C4(CO)CCCO4)n3)cc2N(Cc2ccc(-c3noc(C(F)(F)F)n3)cc2)C1=O (stereo partly drawn) [Example 18, (3R)-3-amino-8-fluoro-7-[5-[2-(hydroxymethyl)tetrahydrofuran-2-yl]-1,2,4-oxadiazol-3-yl]-1,1-dioxo-5-[[4-[5-(trifluoromethyl)-1,2,4-oxadiazol-3-yl]phenyl]methyl]-2,3-dihydro-1λ^6,5-benzothiazepin-4-one]	151 nM	529 % activation	849 nM
CC(C)(C)c1nnc(-c2ccc(CN3C(=O)[C@@H](N)CS(=O)(=O)c4ccc(-c5nnc(C(C)(C)C)o5)cc43)cc2)o1 [Example 19, (3R)-3-amino-7-(5-tert-butyl-1,3,4-oxadiazol-2-yl)-5-[[4-(5-tert-butyl-1,3,4-oxadiazol-2-yl)phenyl]methyl]-1,1-dioxo-2,3-dihydro-1λ^6,5-benzothiazepin-4-one]	783 nM	40 % activation	> 10000 nM

Further lines, with some results ahead:

IC50 [1]	SMILES	Emax IL2 (% activation) (primary human T-cells)	EC50 (primary human T-cells)
127 nM	N[C@H]1CS(=O)(=O)c2cc(F)c(-c3nnc(N4CCOC5(CC5)C4)o3)cc2N(Cc2ccc(-c3noc(C(F)(F)F)n3)cc2)C1=O [Example 4, (3R)-3-amino-8-fluoro-7-[5-(4-oxa-7-azaspiro[2.5]octan-7-yl)-1,3,4-oxadiazol-2-yl]-1,1-dioxo-5-[[4-[5-(trifluoromethyl)-1,2,4-oxadiazol-3-yl]phenyl]methyl]-2,3-dihydro-1λ^6,5-benzothiazepin-4-one]	220 % activation	207 nM
282 nM	N[C@H]1CS(=O)(=O)c2cc(F)c(-c3noc(C4(N)COC4)n3)cc2N(Cc2ccc(-c3ccc(C(F)(F)F)cn3)cc2)C1=O [Example 10, (3R)-3-amino-7-[5-(3-aminooxetan-3-yl)-1,2,4-oxadiazol-3-yl]-8-fluoro-1,1-dioxo-5-[[4-[5-(trifluoromethyl)-2-pyridyl]phenyl]methyl]-2,3-dihydro-1λ^6,5-benzothiazepin-4-one]	123 % activation	9430 nM
690 nM	N[C@H]1CS(=O)(=O)c2cc(F)c(-c3noc(N4CCOC5(CC5)C4)n3)cc2N(Cc2ccc(-c3ccc(C(F)(F)F)cc3)nc2)C1=O [Example 11, (3R)-3-amino-8-fluoro-7-[5-(4-oxa-7-azaspiro[2.5]octan-7-yl)-1,2,4-oxadiazol-3-yl]-1,1-dioxo-5-[[6-[4-(trifluoromethyl)phenyl]-3-pyridyl]methyl]-2,3-dihydro-1λ^6,5-benzothiazepin-4-one]	64 % activation	7700 nM
169 nM	N[C@H]1CS(=O)(=O)c2cc(F)c(-c3noc(N4CCOC(F)(F)C4)n3)cc2N(Cc2ccc(-c3noc(C(F)(F)F)n3)nc2)C1=O [Example 12, (3R)-3-amino-7-[5-(2,2-difluoromorpholin-4-yl)-1,2,4-oxadiazol-3-yl]-8-fluoro-1,1-dioxo-5-[[6-[5-(trifluoromethyl)-1,2,4-oxadiazol-3-yl]-3-pyridyl]methyl]-2,3-dihydro-1λ^6,5-benzothiazepin-4-one]	167 % activation	3050 nM
769 nM	N[C@H]1CS(=O)(=O)c2cc(F)c(-c3noc(N4CCOC(F)(F)C4)n3)cc2N(Cc2ccc(-c3ccc(C(F)(F)F)cc3)nc2)C1=O [Example 13, (3R)-3-amino-7-[5-(2,2-difluoromorpholin-4-yl)-1,2,4-oxadiazol-3-yl]-8-fluoro-1,1-dioxo-5-[[6-[4-(trifluoromethyl)phenyl]-3-pyridyl]methyl]-2,3-dihydro-1λ^6,5-benzothiazepin-4-one]	26 % activation	> 10000 nM
144 nM	N[C@H]1CS(=O)(=O)c2cc(F)c(-c3noc(N4CCOC5(CC5)C4)n3)cc2N(Cc2ccc(-c3noc(C(F)(F)F)n3)nc2)C1=O [Example 14, (3R)-3-amino-8-fluoro-7-[5-(4-oxa-7-azaspiro[2.5]octan-7-yl)-1,2,4-oxadiazol-3-yl]-1,1-dioxo-5-[[6-[5-(trifluoromethyl)-1,2,4-oxadiazol-3-yl]-3-pyridyl]methyl]-2,3-dihydro-1λ^6,5-benzothiazepin-4-one]	93 % activation	3990 nM
464 nM	N#CC1(c2nc(-c3cc4c(cc3F)S(=O)(=O)C[C@H](N)C(=O)N4Cc3ccc(-c4ccc(C(F)(F)F)cn4)cc3)no2)CC1 [Example 17]	221 % activation	1540 nM
